{"source": "paper PMC11649115", "about": "“In vitro safety evaluation of dopamine D3R antagonist, R-VK4-116, as a potential medication for the treatment of opioid use disorder” (PLOS ONE, 2024)", "format_in_all_cases": "in vitro ADME", "key": {"CYP3A4 mRNA": {"system": "CYP3A4 mRNA", "test": "CYP induction, mRNA, primary cultured human hepatocytes", "details": "for fold induction at 48 h, 0.01 µM / fold induction at 48 h, 0.1 µM / fold induction at 48 h, 1 µM / fold induction at 48 h, 3 µM / fold induction at 48 h, 5 µM / fold induction at 48 h, 10 µM: human, primary cultured human hepatocytes, read-out: CYP3A4 mRNA Fold Induction (fold of vehicle control)"}, "CYP1A2": {"system": "CYP1A2", "test": "CYP induction, in situ catalytic activity, human hepatocytes", "text": "Rifampicin as a positive control and solvent (0.1% DMSO) vehicle control were also included. The acceptance criteria for CYP induction was ≥ 2-fold induction for significant CYP activity, while the acceptance criteria for CYP mRNA was ≥ 4-fold for significant CYP induction."}, "CYP3A4": {"system": "CYP3A4", "test": "CYP induction, in situ catalytic activity, human hepatocytes"}}, "note": "Where two headings read alike, the source gives them in different places."}
{"smiles": "CCc1cc(Cl)c(OC)c(N2CCN(CC(O)CCNC(=O)c3cc4ccccc4[nH]3)CC2)c1", "note": "(stereo not drawn) [R-VK4-116, N-(4-(4-(3-chloro-5-ethyl-2-methoxyphenyl)piperazin-1-yl)-3-hydroxybutyl)-1H-indole-2-carboxamide]", "values": [{"measurement": "induction in CYP3A4 mRNA, average", "setting": "CYP3A4 mRNA; 5 μM, two days, average of hepatocyte lots", "value": 2.9, "unit": "fold"}, {"measurement": "fold induction at 48 h, 0.01 µM", "setting": "CYP3A4 mRNA; Lot 336, 0.01 μM", "value": "1.1 ± 0.079"}, {"measurement": "fold induction at 48 h, 0.1 µM", "setting": "CYP3A4 mRNA; Lot 336, 0.1 μM", "value": "1.1 ± 0.18"}, {"measurement": "fold induction at 48 h, 1 µM", "setting": "CYP3A4 mRNA; Lot 336, 1 μM", "value": "2.3 ± 0.15"}, {"measurement": "fold induction at 48 h, 3 µM", "setting": "CYP3A4 mRNA; Lot 336, 3 μM", "value": "3.7 ± 0.56"}, {"measurement": "fold induction at 48 h, 5 µM", "setting": "CYP3A4 mRNA; Lot 336, 5 μM", "value": "4 ± 0.78"}, {"measurement": "fold induction at 48 h, 10 µM", "setting": "CYP3A4 mRNA; Lot 336, 10 μM", "value": "3.7 ± 0.2"}, {"measurement": "fold induction at 48 h, 0.01 µM", "setting": "CYP3A4 mRNA; Lot 348B, 0.01 μM", "value": "1.1 ± 0.05"}, {"measurement": "fold induction at 48 h, 0.1 µM", "setting": "CYP3A4 mRNA; Lot 348B, 0.1 μM", "value": "1.2 ± 0.081"}, {"measurement": "fold induction at 48 h, 1 µM", "setting": "CYP3A4 mRNA; Lot 348B, 1 μM", "value": "1.3 ± 0.12"}, {"measurement": "fold induction at 48 h, 3 µM", "setting": "CYP3A4 mRNA; Lot 348B, 3 μM", "value": "1.8 ± 0.17"}, {"measurement": "fold induction at 48 h, 5 µM", "setting": "CYP3A4 mRNA; Lot 348B, 5 μM", "value": "2 ± 0.27"}, {"measurement": "fold induction at 48 h, 10 µM", "setting": "CYP3A4 mRNA; Lot 348B, 10 μM", "value": "1.9 ± 0.13"}, {"measurement": "fold induction at 48 h, 0.01 µM", "setting": "CYP3A4 mRNA; Lot 399, 0.01 μM", "value": "1.2 ± 0.2"}, {"measurement": "fold induction at 48 h, 0.1 µM", "setting": "CYP3A4 mRNA; Lot 399, 0.1 μM", "value": "1.2 ± 0.11"}, {"measurement": "fold induction at 48 h, 1 µM", "setting": "CYP3A4 mRNA; Lot 399, 1 μM", "value": "1.8 ± 0.12"}, {"measurement": "fold induction at 48 h, 3 µM", "setting": "CYP3A4 mRNA; Lot 399, 3 μM", "value": "2.6 ± 0.14"}, {"measurement": "fold induction at 48 h, 5 µM", "setting": "CYP3A4 mRNA; Lot 399, 5 μM", "value": "2.7 ± 0.4"}, {"measurement": "fold induction at 48 h, 10 µM", "setting": "CYP3A4 mRNA; Lot 399, 10 μM", "value": "2.3 ± 0.39"}, {"measurement": "CYP1A2 activity, Fold of Vehicle Control", "setting": "CYP1A2; Lot 336, 0.01 µM", "value": 0.96, "unit": "fold"}, {"measurement": "Phenacetin-O- deethylation", "setting": "CYP1A2; Lot 336, 0.01 µM", "value": 1.1, "unit": "pmol/min/106 cells"}, {"measurement": "CYP1A2 activity, Fold of Vehicle Control", "setting": "CYP1A2; Lot 336, 0.1 µM", "value": 0.96, "unit": "fold"}, {"measurement": "Phenacetin-O- deethylation", "setting": "CYP1A2; Lot 336, 0.1 µM", "value": 1.1, "unit": "pmol/min/106 cells"}, {"measurement": "CYP1A2 activity, Fold of Vehicle Control", "setting": "CYP1A2; Lot 336, 1 µM", "value": 1.2, "unit": "fold"}, {"measurement": "Phenacetin-O- deethylation", "setting": "CYP1A2; Lot 336, 1 µM", "value": 1.4, "unit": "pmol/min/106 cells"}, {"measurement": "CYP1A2 activity, Fold of Vehicle Control", "setting": "CYP1A2; Lot 336, 3 µM", "value": 1.5, "unit": "fold"}, {"measurement": "Phenacetin-O- deethylation", "setting": "CYP1A2; Lot 336, 3 µM", "value": 1.8, "unit": "pmol/min/106 cells"}, {"measurement": "CYP1A2 activity, Fold of Vehicle Control", "setting": "CYP1A2; Lot 336, 5 µM", "value": 1.6, "unit": "fold"}, {"measurement": "Phenacetin-O- deethylation", "setting": "CYP1A2; Lot 336, 5 µM", "value": 1.8, "unit": "pmol/min/106 cells"}, {"measurement": "CYP1A2 activity, Fold of Vehicle Control", "setting": "CYP1A2; Lot 336, 10 µM", "value": 1.5, "unit": "fold"}, {"measurement": "CYP1A2 activity, Fold of Vehicle Control", "setting": "CYP1A2; Lot 348B, 0.01 µM", "value": 0.92, "unit": "fold"}, {"measurement": "CYP1A2 activity, Fold of Vehicle Control", "setting": "CYP1A2; Lot 348B, 0.1 µM", "value": 0.91, "unit": "fold"}, {"measurement": "CYP1A2 activity, Fold of Vehicle Control", "setting": "CYP1A2; Lot 348B, 1 µM", "value": 0.99, "unit": "fold"}, {"measurement": "CYP1A2 activity, Fold of Vehicle Control", "setting": "CYP1A2; Lot 348B, 3 µM", "value": 1.1, "unit": "fold"}, {"measurement": "CYP1A2 activity, Fold of Vehicle Control", "setting": "CYP1A2; Lot 348B, 5 µM", "value": 1.1, "unit": "fold"}, {"measurement": "CYP1A2 activity, Fold of Vehicle Control", "setting": "CYP1A2; Lot 348B, 10 µM", "value": 1.1, "unit": "fold"}, {"measurement": "CYP1A2 activity, Fold of Vehicle Control", "setting": "CYP1A2; Lot 399, 0.01 µM", "value": 1.1, "unit": "fold"}, {"measurement": "Phenacetin-O- deethylation", "setting": "CYP1A2; Lot 399, 0.01 µM", "value": 8.8, "unit": "pmol/min/106 cells"}, {"measurement": "CYP1A2 activity, Fold of Vehicle Control", "setting": "CYP1A2; Lot 399, 0.1 µM", "value": 1.1, "unit": "fold"}, {"measurement": "Phenacetin-O- deethylation", "setting": "CYP1A2; Lot 399, 0.1 µM", "value": 9.4, "unit": "pmol/min/106 cells"}, {"measurement": "CYP1A2 activity, Fold of Vehicle Control", "setting": "CYP1A2; Lot 399, 1 µM", "value": 1.1, "unit": "fold"}, {"measurement": "Phenacetin-O- deethylation", "setting": "CYP1A2; Lot 399, 1 µM", "value": 9.3, "unit": "pmol/min/106 cells"}, {"measurement": "CYP1A2 activity, Fold of Vehicle Control", "setting": "CYP1A2; Lot 399, 3 µM", "value": 1.2, "unit": "fold"}, {"measurement": "Phenacetin-O- deethylation", "setting": "CYP1A2; Lot 399, 3 µM", "value": 9.8, "unit": "pmol/min/106 cells"}, {"measurement": "CYP1A2 activity, Fold of Vehicle Control", "setting": "CYP1A2; Lot 399, 5 µM", "value": 1.2, "unit": "fold"}, {"measurement": "Phenacetin-O- deethylation", "setting": "CYP1A2; Lot 399, 5 µM", "value": 10, "unit": "pmol/min/106 cells"}, {"measurement": "CYP1A2 activity, Fold of Vehicle Control", "setting": "CYP1A2; Lot 399, 10 µM", "value": 1.1, "unit": "fold"}, {"measurement": "Phenacetin-O- deethylation", "setting": "CYP1A2; Lot 399, 10 µM", "value": 9.0, "unit": "pmol/min/106 cells"}, {"measurement": "CYP3A4 activity", "setting": "CYP3A4; 0.01 to 10 μM", "value": "did not increase"}, {"measurement": "Fold of Vehicle Control (CYP3A4 activity, testosterone-6β-hydroxylation)", "setting": "CYP3A4; hepatocyte Lot 336, 0.01 µM", "value": 0.96, "unit": "fold"}, {"measurement": "Testosterone-6β- Hydroxylation", "setting": "CYP3A4; hepatocyte Lot 336, 0.01 µM", "value": 9.1, "unit": "pmol/min/106 cells"}, {"measurement": "Fold of Vehicle Control (CYP3A4 activity, testosterone-6β-hydroxylation)", "setting": "CYP3A4; hepatocyte Lot 336, 0.1 µM", "value": 0.80, "unit": "fold"}, {"measurement": "Testosterone-6β- Hydroxylation", "setting": "CYP3A4; hepatocyte Lot 336, 0.1 µM", "value": 7.5, "unit": "pmol/min/106 cells"}, {"measurement": "Fold of Vehicle Control (CYP3A4 activity, testosterone-6β-hydroxylation)", "setting": "CYP3A4; hepatocyte Lot 336, 1 µM", "value": 0.66, "unit": "fold"}, {"measurement": "Testosterone-6β- Hydroxylation", "setting": "CYP3A4; hepatocyte Lot 336, 1 µM", "value": 6.3, "unit": "pmol/min/106 cells"}, {"measurement": "Fold of Vehicle Control (CYP3A4 activity, testosterone-6β-hydroxylation)", "setting": "CYP3A4; hepatocyte Lot 336, 3 µM", "value": 0.63, "unit": "fold"}, {"measurement": "Testosterone-6β- Hydroxylation", "setting": "CYP3A4; hepatocyte Lot 336, 3 µM", "value": 5.9, "unit": "pmol/min/106 cells"}, {"measurement": "Fold of Vehicle Control (CYP3A4 activity, testosterone-6β-hydroxylation)", "setting": "CYP3A4; hepatocyte Lot 336, 5 µM", "value": 0.64, "unit": "fold"}, {"measurement": "Testosterone-6β- Hydroxylation", "setting": "CYP3A4; hepatocyte Lot 336, 5 µM", "value": 6.1, "unit": "pmol/min/106 cells"}, {"measurement": "Fold of Vehicle Control (CYP3A4 activity, testosterone-6β-hydroxylation)", "setting": "CYP3A4; hepatocyte Lot 336, 10 µM", "value": 0.55, "unit": "fold"}, {"measurement": "Fold of Vehicle Control (CYP3A4 activity, testosterone-6β-hydroxylation)", "setting": "CYP3A4; hepatocyte Lot 348B, 0.01 µM", "value": 1.0, "unit": "fold"}, {"measurement": "Fold of Vehicle Control (CYP3A4 activity, testosterone-6β-hydroxylation)", "setting": "CYP3A4; hepatocyte Lot 348B, 0.1 µM", "value": 1.0, "unit": "fold"}, {"measurement": "Fold of Vehicle Control (CYP3A4 activity, testosterone-6β-hydroxylation)", "setting": "CYP3A4; hepatocyte Lot 348B, 1 µM", "value": 0.70, "unit": "fold"}]}
